In patent publication US7767804B2, “Compositions and methods for using a solid support to purify RNA” (Qiagen North American Holdings, Inc., priority 2001, dated 2010):
Read-outs that look alike come from different tables or passages of the source.

Legend:
[1] = Description: Much time and effort was spent screening detergents that would adequately lyse cells and also stay soluble in the Lysing/Binding Solution of the present invention. The Tween, Triton, Tergitol, Nonidet and Igepal family of detergents were examined along with a number of non-ionic detergent-like compounds.
[2] = cited from earlier work; for Type of Heat: heat of aqueous solution; for Heat of Aqueous Solution: tabulated, Handbook of Chemistry and Physics
[3] = approximate maximum solubility in Wash I Solution containing 55% ethanol
[4] = data extrapolated to 20° C. from tabulated data in Handbook of Chemistry and Physics, cited from earlier work
[5] = tested on: RNase activity; assay: RNase activity with LiCl Wash I Solution, detected as degraded RNA in the final eluted RNA product; format: biochemical
Description: For cesium, ammonium, sodium and potassium chloride salts, the maximum solubilities obtained in 55% ethanol were about 2.5 M, 2 M, 1.5 M, and <1 M, respectively. […] It is likely that RNase activity would be detected using the LiCl and LiBr salts as well, at least some proportion of the time, and depending upon the tissue from which the RNA is purified. […] This is probably because solubility definitions are somewhat vague for predicted alcohol solubilities, and the Wash I Solution used in this experiment contained a mixture of water and ethanol, rather than a pure alcohol solution.

[6] = pH 8.8

CCCCCCCCCCCC(=O)OCCOCCOCCOCCOCCOCCOCCOCCOCCOCCOCCOCCOCCOCCOCCOCCOCCOCCOCCOCCOCC(OCCOCCOCCOCCOCCOCCOCCOCCOCCOCCOCCOCCOCCOCCOCCOCCOCCOCCOCCOCCO)C1OCC(OCCOCCOCCOCCOCCOCCOCCOCCOCCOCCOCCOCCOCCOCCOCCOCCOCCOCCOCCOCCO)C1OCCOCCOCCOCCOCCOCCOCCOCCOCCOCCOCCOCCOCCOCCOCCOCCOCCOCCOCCOCCO (stereo not drawn) [Tween-20, polyoxylene sorbitan monolaurate]
Stability/solubility of detergent in the Lysing/Binding Solution over time [1]: saponified or degraded over time and fell out of solution

Cl.N [NH4Cl, ammonium chloride]
Type of Heat [2]: endothermic | Heat of Aqueous Solution [2]: +3.53 kcal/mole

CCOCCOCCO [DGME, Diethyleneglycolmonoethylether]
Stability/solubility of detergent in the Lysing/Binding Solution over time [1]: stays in solution

[Cl-].[Cs+] [CsCl, cesium chloride]
Type of Heat [2]: endothermic | Heat of Aqueous Solution [2]: +4.25 kcal/mole

[Cl-].[K+] [KCl, potassium chloride]
Measured Solubility in Wash I [3]: < 1000 mM | Measured Solubility in Wash I ([3]; listed as potassium chloride): < 1000 mM | Type of Heat [2]: endothermic | Heat of Aqueous Solution [2]: +4.12 kcal/mole | Reported Solubility in Water [4]: 3000 mM | Reported Solubility in Water ([4]; listed as potassium chloride): approximately 3 M

[Br-].[Li+] [LiBr, lithium bromide]
Type of Heat [2]: exothermic | Heat of Aqueous Solution [2]: -11.67 kcal/mol

[Cl-].[Li+] [LiCl, lithium chloride]
RNase activity detected as degraded RNA in the final eluted RNA product ([5]; 2.5 M LiCl Wash I Solution): RNase activity was detected at least half of the time | LiCl needed in the Wash I Solution in order to eliminate the RNase activity ([5]; Wash I Solution): at least 5 M | Measured Solubility in Lysis/Binding [6]: at least 4M | Type of Heat [2]: exothermic | Heat of Aqueous Solution [2]: -8.85 kcal/mol

[Cl-].[Na+] [NaCl, sodium chloride]
Type of Heat [2]: endothermic | Heat of Aqueous Solution [2]: +0.93 kcal/mole
